US12122763B2, “Substituted piperidines for androgen receptor degradation” (UBIX THERAPEUTICS, INC., priority 2020, dated 2024)

Target: T1, Androgen Receptor (AR) protein (Homo sapiens, UniProt P10275, T878A)
T1 construct: endogenous in cells; host or cells: LNCaP
Assay: Androgen Receptor (AR) protein degradation assay in LNCaP cells, western blotting
Type: cell-based
Settings: 20 h; for inhibition at 0.01 µM: 0.01 μM compound; for inhibition at 0.1 µM: 0.1 μM compound; for inhibition at 1 µM: 1 μM compound
In short: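 AR protein level was detected by western blot (ECL) against GAPDH or β-actin controls, with 8 μg lysate protein loaded per lane after BCA quantification. Lysates came from LNCaP cells exposed to test compound for 20 h, following 3 days of growth in RPMI/10% FBS.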

T1 sequence (P10275 whole entry T878A): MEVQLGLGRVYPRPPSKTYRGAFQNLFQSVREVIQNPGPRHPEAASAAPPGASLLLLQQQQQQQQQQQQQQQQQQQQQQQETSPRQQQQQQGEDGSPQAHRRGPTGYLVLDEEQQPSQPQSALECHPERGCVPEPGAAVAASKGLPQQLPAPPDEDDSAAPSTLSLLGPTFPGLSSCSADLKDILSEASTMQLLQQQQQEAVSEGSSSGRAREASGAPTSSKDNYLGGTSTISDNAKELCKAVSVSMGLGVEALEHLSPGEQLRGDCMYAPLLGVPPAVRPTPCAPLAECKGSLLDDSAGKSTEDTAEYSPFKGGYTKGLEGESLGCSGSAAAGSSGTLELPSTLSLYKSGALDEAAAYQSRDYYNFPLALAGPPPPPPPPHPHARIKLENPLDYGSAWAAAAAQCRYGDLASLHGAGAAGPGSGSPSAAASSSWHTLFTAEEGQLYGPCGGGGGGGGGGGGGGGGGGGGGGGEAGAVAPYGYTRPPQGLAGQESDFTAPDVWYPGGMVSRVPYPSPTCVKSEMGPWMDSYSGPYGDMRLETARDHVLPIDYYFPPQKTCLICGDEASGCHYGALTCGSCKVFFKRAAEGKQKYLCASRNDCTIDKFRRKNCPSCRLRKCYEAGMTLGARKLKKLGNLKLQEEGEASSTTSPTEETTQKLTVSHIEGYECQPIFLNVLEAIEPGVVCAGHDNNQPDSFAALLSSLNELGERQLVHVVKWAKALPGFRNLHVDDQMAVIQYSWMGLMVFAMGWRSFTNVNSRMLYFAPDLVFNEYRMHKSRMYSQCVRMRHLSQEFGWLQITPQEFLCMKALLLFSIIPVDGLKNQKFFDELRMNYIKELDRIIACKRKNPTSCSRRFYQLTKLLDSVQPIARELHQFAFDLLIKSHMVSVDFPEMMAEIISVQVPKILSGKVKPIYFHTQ
T1 sequence (Q96SW2 whole entry partner): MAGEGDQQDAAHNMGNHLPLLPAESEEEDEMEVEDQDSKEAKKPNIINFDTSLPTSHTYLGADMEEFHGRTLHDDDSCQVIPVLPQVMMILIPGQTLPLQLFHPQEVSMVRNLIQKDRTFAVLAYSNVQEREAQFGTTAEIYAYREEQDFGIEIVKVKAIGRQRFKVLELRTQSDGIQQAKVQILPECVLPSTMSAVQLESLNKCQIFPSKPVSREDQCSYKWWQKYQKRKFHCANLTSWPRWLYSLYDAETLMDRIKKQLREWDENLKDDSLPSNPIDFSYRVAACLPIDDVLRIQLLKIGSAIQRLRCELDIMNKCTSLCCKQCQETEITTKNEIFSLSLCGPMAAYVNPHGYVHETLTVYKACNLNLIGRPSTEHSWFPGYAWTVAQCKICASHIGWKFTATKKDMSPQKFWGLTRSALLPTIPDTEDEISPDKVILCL

| Structure (SMILES) | inhibition at 0.01 µM [%] | inhibition at 0.1 µM [%] | inhibition at 1 µM [%] | inhibition at 10 µM (10 μM compound) [%] |
| --- | --- | --- | --- | --- |
| N#Cc1ccc(N2CCC(C(=O)Nc3ccc(CCC4CCN(CC5CCN(c6ccc7c(c6)C(=O)N(C6CCC(=O)NC6=O)C7=O)CC5)CC4)cn3)CC2)cc1C(F)(F)F (stereo not shown) [Example 133, 1-(4-cyano-3-(trifluoromethyl)phenyl)-N-(5-(2-(1-((1-(2-(2,6-dioxopiperidin-3-yl)-1,3-dioxoisoindolin-5-yl)piperidin-4-yl)methyl)piperidin-4-yl)ethyl)pyridin-2-yl)piperidine-4-carboxamide] | 60 | 93 | 98 |  |
| N#Cc1ccc(N2CCC(C(=O)Nc3ccc(C#CCN4CC5(CCN(c6ccc7c(c6)C(=O)N(C6CCC(=O)NC6=O)C7=O)CC5)C4)cn3)CC2)cc1C(F)(F)F (stereo not shown) [Example 134, 1-(4-cyano-3-(trifluoromethyl)phenyl)-N-(5-(3-(7-(2-(2,6-dioxopiperidin-3-yl)-1,3-dioxoisoindolin-5-yl)-2,7-diazaspiro[3.5]nonan-2-yl)prop-1-yn-1-yl)pyridin-2-yl)piperidine-4-carboxamide] | 56 | 87 | 96 | 92 |
| N#Cc1ccc(N2CCC(C(=O)Nc3ccc(N4CCC(CN5CC6(CCN(c7ccc8c(c7)CN(C7CCC(=O)NC7=O)C8=O)CC6)C5)CC4)cn3)CC2)cc1C(F)(F)F (stereo not shown) [Example 135, 1-(4-cyano-3-(trifluoromethyl)phenyl)-N-(5-(4-((7-(2-(2,6-dioxopiperidin-3-yl)-1-oxoisoindolin-5-yl)-2,7-diazaspiro[3.5]nonan-2-yl)methyl)piperidin-1-yl)pyridin-2-yl)piperidine-4-carboxamide] | 35 | 94 | 85 |  |
| N#Cc1ccc(N2CCC(F)(C(=O)Nc3ccc(N4CCC(CN5CC6(CCN(c7ccc8c(c7)CN(C7CCC(=O)NC7=O)C8=O)CC6)C5)CC4)cn3)CC2)cc1C(F)(F)F (stereo not shown) [Example 136, 1-(4-cyano-3-(trifluoromethyl)phenyl)-N-(5-(4-((7-(2-(2,6-dioxopiperidin-3-yl)-1-oxoisoindolin-5-yl)-2,7-diazaspiro[3.5]nonan-2-yl)methyl)piperidin-1-yl)pyridin-2-yl)-4-fluoropiperidine-4-carboxamide] | 38 | 92 | 91 |  |
| N#Cc1ncc(N2CCC(C(=O)Nc3ccc(N4CCC(CN5CC6(CCN(c7ccc8c(c7)CN(C7CCC(=O)NC7=O)C8=O)CC6)C5)CC4)cn3)CC2)cc1C(F)(F)F (stereo not shown) [Example 137, 1-(6-cyano-5-(trifluoromethyl)pyridin-3-yl)-N-(5-(4-((7-(2-(2,6-dioxopiperidin-3-yl)-1-oxoisoindolin-5-yl)-2,7-diazaspiro[3.5]nonan-2-yl)methyl)piperidin-1-yl)pyridin-2-yl)piperidine-4-carboxamide] | 46 | 86 | 82 |  |
| N#Cc1ccc(N2CCC(C(=O)Nc3ccc(N4CCC(CCN5CC6(CCN(c7ccc8c(c7)CN(C7CCC(=O)NC7=O)C8=O)CC6)C5)CC4)cn3)CC2)cc1C(F)(F)F (stereo not shown) [Example 138, 1-(4-cyano-3-(trifluoromethyl)phenyl)-N-(5-(4-(2-(7-(2-(2,6-dioxopiperidin-3-yl)-1-oxoisoindolin-5-yl)-2,7-diazaspiro[3.5]nonan-2-yl)ethyl)piperidin-1-yl)pyridin-2-yl)piperidine-4-carboxamide] | 52 | 95 | 90 |  |
| N#Cc1ccc(N2CCC(C(=O)Nc3ccc(N4CCC(CCN5CCN(c6ccc7c(c6)CN(C6CCC(=O)NC6=O)C7=O)CC5)CC4)cn3)CC2)cc1C(F)(F)F (stereo not shown) [Example 139, 1-(4-cyano-3-(trifluoromethyl)phenyl)-N-(5-(4-(2-(4-(2-(2,6-dioxopiperidin-3-yl)-1-oxoisoindolin-5-yl)piperazin-1-yl)ethyl)piperidin-1-yl)pyridin-2-yl)piperidine-4-carboxamide] | 30 | 92 | 84 |  |
| N#Cc1ccc(N2CCC(C(=O)Nc3ccc(N4CCC(CN5CCN(C6CCN(c7ccc8c(c7)CN(C7CCC(=O)NC7=O)C8=O)CC6)CC5)CC4)cn3)CC2)cc1C(F)(F)F (stereo not shown) [Example 140, 1-(4-cyano-3-(trifluoromethyl)phenyl)-N-(5-(4-((4-(1-(2-(2,6-dioxopiperidin-3-yl)-1-oxoisoindolin-5-yl)piperidin-4-yl)piperazin-1-yl)methyl)piperidin-1-yl)pyridin-2-yl)piperidine-4-carboxamide] | 87 | 98 | 95 |  |
| N#Cc1ccc(N2CCC(F)(C(=O)Nc3ccc(N4CCC(CN5CCN(C6CCN(c7ccc8c(c7)CN(C7CCC(=O)NC7=O)C8=O)CC6)CC5)CC4)cn3)CC2)cc1C(F)(F)F (stereo not shown) [Example 141, 1-(4-cyano-3-(trifluoromethyl)phenyl)-N-(5-(4-((4-(1-(2-(2,6-dioxopiperidin-3-yl)-1-oxoisoindolin-5-yl)piperidin-4-yl)piperazin-1-yl)methyl)piperidin-1-yl)pyridin-2-yl)-4-fluoropiperidine-4-carboxamide] | 66 | 92 | 90 |  |
| N#Cc1ncc(N2CCC(C(=O)Nc3ccc(N4CCC(CN5CCN(C6CCN(c7ccc8c(c7)CN(C7CCC(=O)NC7=O)C8=O)CC6)CC5)CC4)cn3)CC2)cc1C(F)(F)F (stereo not shown) [Example 142, 1-(6-cyano-5-(trifluoromethyl)pyridin-3-yl)-N-(5-(4-((4-(1-(2-(2,6-dioxopiperidin-3-yl)-1-oxoisoindolin-5-yl)piperidin-4-yl)piperazin-1-yl)methyl)piperidin-1-yl)pyridin-2-yl)piperidine-4-carboxamide] | 55 | 87 | 83 |  |
| N#Cc1ccc(N2CCC(C(=O)Nc3ccc(N4CCC(CN5CCN(CC6CCN(c7ccc8c(c7)CN(C7CCC(=O)NC7=O)C8=O)CC6)CC5)CC4)cn3)CC2)cc1C(F)(F)F (stereo not shown) [Example 143, 1-(4-cyano-3-(trifluoromethyl)phenyl)-N-(5-(4-((4-((1-(2-(2,6-dioxopiperidin-3-yl)-1-oxoisoindolin-5-yl)piperidin-4-yl)methyl)piperazin-1-yl)methyl)piperidin-1-yl)pyridin-2-yl)piperidine-4-carboxamide] | 73 | 97 | 97 |  |
| N#Cc1ccc(N2CCC(F)(C(=O)Nc3ccc(N4CCC(CN5CCN(CC6CCN(c7ccc8c(c7)CN(C7CCC(=O)NC7=O)C8=O)CC6)CC5)CC4)cn3)CC2)cc1C(F)(F)F (stereo not shown) [Example 144, 1-(4-cyano-3-(trifluoromethyl)phenyl)-N-(5-(4-((4-((1-(2-(2,6-dioxopiperidin-3-yl)-1-oxoisoindolin-5-yl)piperidin-4-yl)methyl)piperazin-1-yl)methyl)piperidin-1-yl)pyridin-2-yl)-4-fluoropiperidine-4-carboxamide] | 43 | 84 | 95 |  |
| N#Cc1ncc(N2CCC(C(=O)Nc3ccc(N4CCC(CN5CCN(CC6CCN(c7ccc8c(c7)CN(C7CCC(=O)NC7=O)C8=O)CC6)CC5)CC4)cn3)CC2)cc1C(F)(F)F (stereo not shown) [Example 145, 1-(6-cyano-5-(trifluoromethyl)pyridin-3-yl)-N-(5-(4-((4-((1-(2-(2,6-dioxopiperidin-3-yl)-1-oxoisoindolin-5-yl)piperidin-4-yl)methyl)piperazin-1-yl)methyl)piperidin-1-yl)pyridin-2-yl)piperidine-4-carboxamide] | 20 | 84 | 88 |  |
| N#Cc1ccc(N2CCC(C(=O)Nc3ccc(N4CCC(CN5CCC(Oc6ccc7c(c6)C(=O)N(C6CCC(=O)NC6=O)C7=O)CC5)CC4)cn3)CC2)cc1C(F)(F)F (stereo not shown) [Example 146, 1-(4-cyano-3-(trifluoromethyl)phenyl)-N-(5-(4-((4-((2-(2,6-dioxopiperidin-3-yl)-1,3-dioxoisoindolin-5-yl)oxy)piperidin-1-yl)methyl)piperidin-1-yl)pyridin-2-yl)piperidine-4-carboxamide] | 67 | 97 | 98 |  |
| N#Cc1ccc(N2CCC(C(=O)Nc3ccc(N4CCC(CN5CCC(COc6ccc7c(c6)C(=O)N(C6CCC(=O)NC6=O)C7=O)CC5)CC4)cn3)CC2)cc1C(F)(F)F (stereo not shown) [Example 147, 1-(4-cyano-3-(trifluoromethyl)phenyl)-N-(5-(4-((4-(((2-(2,6-dioxopiperidin-3-yl)-1,3-dioxoisoindolin-5-yl)oxy)methyl)piperidin-1-yl)methyl)piperidin-1-yl)pyridin-2-yl)piperidine-4-carboxamide] | 68 | 96 | 97 |  |
| N#Cc1ccc(N2CCC(C(=O)Nc3ccc(N4CC(CN5CCC(Oc6ccc7c(c6)C(=O)N(C6CCC(=O)NC6=O)C7=O)CC5)C4)cn3)CC2)cc1C(F)(F)F (stereo not shown) [Example 148, 1-(4-cyano-3-(trifluoromethyl)phenyl)-N-(5-(3-((4-((2-(2,6-dioxopiperidin-3-yl)-1,3-dioxoisoindolin-5-yl)oxy)piperidin-1-yl)methyl)azetidin-1-yl)pyridin-2-yl)piperidine-4-carboxamide] | 27 | 87 | 93 |  |
| N#Cc1ccc(N2CCC(C(=O)Nc3ccc(N4CC(CN5CCC(COc6ccc7c(c6)C(=O)N(C6CCC(=O)NC6=O)C7=O)CC5)C4)cn3)CC2)cc1C(F)(F)F (stereo not shown) [Example 149, 1-(4-cyano-3-(trifluoromethyl)phenyl)-N-(5-(3-((4-(((2-(2,6-dioxopiperidin-3-yl)-1,3-dioxoisoindolin-5-yl)oxy)methyl)piperidin-1-yl)methyl)azetidin-1-yl)pyridin-2-yl)piperidine-4-carboxamide] | 56 | 97 | 97 |  |
